# d = 2'-deoxy (DNA)
# What was measured:
# Capan-1 cells = experiment: BrdU incorporation cell proliferation assay; assay type: cell-based, human; settings: Capan-1, inhibitor 20 μM, 24 h
# Procedure: (§1) To assess cell proliferation and apoptosis, cells were plated in duplicates on a 96-well plate and incubated in 100 μl of the cell line appropriate media described above. Cells were transfected with siRNA soon after complete attachment (approx. 3 h after seeding). Cells were treated with vehicle, 20 μM gemcitabine, 20 μM T16Ainh-A01, or 10 μM free NS3728 (see below) after culture in a humidified 37 °C and 5 % CO2 incubator overnight. BrdU incorporation was measured using Cell Proliferation ELISA, BrdU (chemiluminescent) (Roche Diagnostics A/S, Denmark) following the manufacturer’s instructions. Caspases 3, 6, and 7 activation was evaluated using Homogeneous Caspases Assay (fluorimetric) (Roche Diagnostics A/S, Denmark).
# (§2) Fig. 7 VRAC, but not ANO1, regulates cellular proliferation. a Summary of BrdU incorporation in HPDE, Capan-1, AsPC-1, and BxPC-3 cells after various treatments as indicated. Cells were transfected shortly after complete attachment (approx. 3 h) and BrdU incorporation was assessed 36 h after transfection. To investigate effect of inhibitors, cells were incubated for 24 h with respective inhibitor. Values shown are relative to appropriate control. Data shown represents mean ± s.e.m. of n = 4–6 individual experiments. **p ≤ 0.01 and ***p ≤ 0.001 when compared with control
# BxPC-3 cells = experiment: Fura-2 measurement of free intracellular calcium, ATP stimulation; assay type: cell-based, human; settings: for effect on basal [Ca2+]i: BxPC-3, inhibitor 20 μM
# Procedure: (§3) HPDE and BxPC-3 cells were incubated with 2 μM Fura-2 AM (Sigma-Aldrich, Denmark) for 30 min at 37 °C. Cells were subsequently washed with Krebs solution containing (in mM) 150 NaCl, 6 KCl, 1.5 CaCl2, 1 MgCl2, 10 glucose, and 10 HEPES; pH was adjusted to 7.4 using NaOH. Coverslips were mounted on a recording chamber. In the beginning of the experiment, cells were perfused with Krebs solution at 4 ml/min until baseline was stable. […] Changes in [Ca^2+]i were measured by a TIRF iMIC microscope (TILL Photonics, Germany). Fura-2 AM loaded cells were illuminated at 340 nm for 80 ms and 380 nm for 80 ms at 1 s intervals using a TILL Polychrome monochromator. Five hundred-nanometer emission images were captured by an image-intensifying, charge-coupled device (CCD) camera (TILL Photonics, Germany) and digitized by an image processing system (TILL Photonics, Germany). The monochromator and CCD camera were controlled by LA Live Acquisition software, which was also used for image analysis. The [Ca^2+]i was presented as the Fura-2 ratio of the fluorescence signals obtained at 340/380 nm.
# (§4) Fig. 8 Cl^− channel inhibitors alter ATP-induced Ca^2+ signals. Intracellular Ca^2+ measurements in FURA-2 loaded HPDE and BxPC-3 cells. a Representative single-cell traces of individual experiments. Different substances were applied as indicated. […] (n) = number of individual experiments; each containing between 5–45 single cells.***p ≤ 0.001 when compared to no inhibitor condition; ^## p ≤ 0.01 when compared with HPDE no inhibitor
# (§5) Activation of CaCC requires an increase in [Ca^2+]i, which can be achieved by stimulation of receptors such as purinergic receptors. Therefore, we studied the effect of Cl^− channel inhibitors on changes in [Ca^2+]i induced by purinergic signaling. We chose HPDE cells with very low expression levels of ANO1 and the highly ANO1 overexpressing cell line BxPC-3 for investigation. Fura-2 loaded HPDE and BxPC-3 cells were stimulated with ATP (10 μM) (Fig. 8) or exposed to the inhibitor prior to stimulation. ATP stimulation caused a 0.46 ± 0.03 peak increase in the Fura-2 ratio in HPDE and 0.55 ± 0.02 in BxPC-3 cells. […] However, no effect of the inhibitor on basal Ca^2+ level was observed.
# HPDE cells [1] = experiment: as above; assay type: cell-based, human; settings: for effect on basal [Ca2+]i: inhibitor 20 μM
# Procedure: as §3, §4, §5
# [2] = test system: bronchial epithelial cells; set-up: method as in Scudieri et al. [39]; settings: ref Scudieri et al. [39], cited from earlier work
# HPDE cells [3] = experiment: BrdU incorporation cell proliferation assay; assay type: cell-based, human; settings: inhibitor 20 μM, 24 h
# Procedure: as §1, §2
# CFPAC-1 = test system: CFPAC-1; set-up: method as in Mazzone et al. [23]; settings: CFPAC-1, 10 μM, ref Mazzone et al. [23]; cited from earlier work
# AsPC-1 cells = experiment: Scratch wound healing assay; assay type: cell-based, human; settings: AsPC-1, siRNA 50 nM vs scrambled 5 nM, 5 μM aphidicolin
# Procedure: Cells were seeded into Essen ImageLock 96-well plates. Cells were transfected with siRNA shortly after cells completely attached at 80 % confluency. […] The wound confluence was obtained and analyzed by using the IncuCyte phase-contrast imaging and scratch wound assay system and software (Essen Bioscience, USA). Wound closure was assessed by comparing the mean relative wound density (%RWD) according to the following formula: % RWD = 100 × w(t) − w(0)/[…]. Here, w(t) is the density of wounded area at time t and c(t) is the density of cell region at time t. Each experiment was conducted in triplicates.
# We therefore assessed a possible contribution of ANO1 in PDAC cell migration using wound healing assay. […] The experiments were conducted in the presence of 5 μM aphidicolin to rule out a possible effect on cell proliferation. […] AsPC-1 cells were therefore not well suited for studies of lateral motility.
# Fig. 9 ANO1 supports migration of PDAC cells. Wound healing assay is shown as relative wound density (density of wounded area relative to confluency of cell region) over time. Aphidicolin (5 μM) was added to stop proliferation. a AsPC-1 cells and b BxPC-3 cells after transfection with either scrambled siRNA (5 nM) or siRNA targeting ANO1 (50 nM). c BxPC-3 cells in presence of different inhibitors. Data shown represents mean ± s.e.m. of n = 4 experiments; each run was carried out in triplicates
Molecule,proliferation (BrdU incorporation) (Capan-1 cells),effect on basal [Ca2+]i (BxPC-3 cells),effect on basal [Ca2+]i (HPDE cells [1]),inhibition of Ca2+-activated Cl− secretion ([2]; 10 μM),UTP-induced Cl− secretion in short-circuit current recordings ([2]; cells prior exposed to 10 μM),proliferation (BrdU incorporation) (HPDE cells [3]),proliferation (CFPAC-1),"ATP-induced change in Fura-2 ratio after inhibitor (BxPC-3 cells; BxPC-3, inhibitor 20 μM before ATP 10 μM)",ATP-induced change in Fura-2 ratio after inhibitor (HPDE cells [1]; inhibitor 20 μM before ATP 10 μM),migration (relative wound density over time) (AsPC-1 cells)
"CC(C)(C)C1CCc2c(sc(NC(=O)c3ccco3)c2C(=O)O)C1 (stereo not drawn) [CaCCinh-A01, 6-(1,1-dimethylethyl)-2-[(2-furanylcarbonyl)amino]-4,5,6,7-tetrahydrobenzo[b]thiophene-3-carboxylic acid]",decreased proliferation in Capan-1 slightly,reversible increase,reversible increase,,,,,,,
"CCc1c(C)nc(SCC(=O)Nc2nc(-c3ccc(OC)cc3)cs2)[nH]c1=O [T16Ainh-A01, 2-[(5-Ethyl-1,6-dihydro-4-methyl-6-oxo-2-pyrimidinyl)thio]-N-[4-(4-methoxyphenyl)-2-thiazolyl]acetamide]",,no effect,no effect,relatively weak inhibition,significantly attenuated,showed inhibited proliferation,decrease in proliferation,0.42 ± 0.03,0.32 ± 0.03,
"siRNA targeting ANO1: Predesigned siRNA oligo from Sigma-Aldrich, 5′-CCUUCAACGUCAGUGACUU[dT][dT]-3′, 5′-AAGUCACUGACGUUGAAGG[dT][dT]-3′ (RNA, 3' dTdT, backbone not given here)",,,,,,,,,,significantly decreased migration

# Source: article PMC4464647, “ANO1 (TMEM16A) in pancreatic ductal adenocarcinoma (PDAC)” (Pflugers Archiv, 2014)
